According to patent publication US7138361B2, “Herbicidal heterocycles” (E. I. du Pont de Nemours and Company, priority 2000, dated 2006):

Experiments:
Test in all cases: Test C preemergence
Format in all cases: in vivo
[1] = test system: Surinam grass (Brachiaria decumbens); details: for Plant response rating (0 to 100), Surinam grass: visual evaluation after 12 to 14 days
Method in brief: (§1)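 Formulation: non-phytotoxic solvent mix incl. surfactant. Pre: applied right after planting. Post: 1–4-leaf seedlings. Read: visual 0–100, day 12–14, greenhouse.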

[2] = test system: corn (Zea mays); details: for Plant response rating (0 to 100), Corn: visual evaluation after 12 to 14 days
Method in brief: as §1

[3] = test system: kochia (Kochia scoparia); details: for Plant response rating (0 to 100), Kochia: visual evaluation after 12 to 14 days
Method in brief: as §1

[4] = test system: morningglory (Ipomoea hederacea); details: for Plant response rating (0 to 100), Morningglory: visual evaluation after 12 to 14 days
Method in brief: as §1

[5] = test system: Sunflower; details: visual evaluation after 12 to 14 days
[6] = Preemergence, Rate 500 g/ha, scale 0 to 100
[7] = Rate 62 g/ha, scale 0 to 100, 0 no effect, 100 complete control
[8] = preemergence, Rate 125 g/ha, scale 0 to 100, 0 no effect, 100 complete control
[9] = Rate 125 g/ha, scale 0 to 100, 0 no effect, 100 complete control
[10] = preemergence, Rate 62 g/ha, scale 0 to 100
[11] = preemergence, Rate 250 g/ha, scale 0 to 100, 0 no effect, 100 complete control
[12] = preemergence, Rate 31 g/ha, scale 0 to 100

Compound | Plant response rating, Surinam grass [1, 9] | Plant response rating, Surinam grass [1, 10] | Plant response rating (0 to 100), Surinam grass ([1]; preemergence, Rate 500 g/ha) | Plant response rating, Surinam grass [1, 11] | Plant response rating, Corn [2, 9] | Plant response rating, Corn [2, 10] | Plant response rating (0 to 100), Corn ([2]; preemergence, Rate 500 g/ha) | Plant response rating, Corn [2, 11] | Plant response rating, Kochia [3, 9] | Plant response rating, Kochia [3, 10] | Plant response rating (0 to 100), Kochia ([3]; preemergence, Rate 500 g/ha) | Plant response rating, Kochia [3, 11] | Plant response rating, Morningglory [4, 9] | Plant response rating, Morningglory [4, 10] | Plant response rating (0 to 100), Morningglory ([4]; preemergence, Rate 500 g/ha) | Plant response rating, Morningglory [4, 11] | also measured
CC(C)(C)c1ccn(C2CCN(c3cccc(C(F)(F)F)c3)C2=S)n1 (stereo not shown) [Compound 22] |  |  |  |  |  |  |  |  |  |  |  |  |  |  |  |  | Plant response rating, Surinam grass [1, 6]: 90; Plant response rating, Surinam grass [1, 7]: 0; Plant response rating (0 to 100), Surinam grass ([1]; preemergence, Rate 250 g/ha): 60; Plant response rating, Surinam grass [1, 8]: 40; Plant response rating, Corn [2, 6]: 30; Plant response rating, Corn [2, 7]: 20; Plant response rating (0 to 100), Corn ([2]; preemergence, Rate 250 g/ha): 20; Plant response rating, Corn [2, 8]: 20; Plant response rating, Kochia [3, 6]: 100; Plant response rating, Kochia [3, 7]: 100; Plant response rating (0 to 100), Kochia ([3]; preemergence, Rate 250 g/ha): 100; Plant response rating, Kochia [3, 8]: 100; Plant response rating, Morningglory [4, 6]: 0; Plant response rating, Morningglory [4, 7]: 0; Plant response rating (0 to 100), Morningglory ([4]; preemergence, Rate 250 g/ha): 0; Plant response rating, Morningglory [4, 8]: 0; Plant response rating (0 to 100), Sunflower ([5]; Rate 250 g/ha): 0
CCC(CC)c1ccn(C2CCN(c3ccc(Cl)c(OC)c3)C2=O)n1 (stereo not shown) [Compound 118] | 10 | 0 | 50 | 30 | 0 | 0 | 35 | 10 | 100 | 80 | 100 | 100 | 20 | 0 | 100 | 90 | Plant response rating (0 to 100), Sunflower ([5]; Rate 500 g/ha): 70
CCCC(C)c1ccn(C2OCN(c3cccc(OC(F)F)c3)C2=O)n1 (stereo not shown) [Compound 132] | 100 | 90 | 100 | 100 | 10 | 0 | 90 | 70 | 100 |  | 100 | 100 |  | 0 | 0 | 0 | 
Cc1cc(C)nc(N2CCC(n3ccc(C(C)(C)C)n3)C2=O)c1 (stereo not shown) [Compound 138] | 0 | 0 |  | 100 | 0 | 0 |  | 30 | 100 | 90 |  | 100 | 80 | 30 |  | 80 | Plant response rating, Surinam grass [1, 12]: 0; Plant response rating, Corn [2, 12]: 0; Plant response rating, Kochia [3, 12]: 60; Plant response rating, Morningglory [4, 12]: 30
